Reference: ChEMBL document CHEMBL1201862, “PubChem BioAssay data set” (2004)
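Each compound was tested at five concentrations against cells in 96-well plates for 48 hours. GI50: concentration for 50% inhibition of growth.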 Calls of active or inactive are those of the source. No stated cut-off is given here; in the data, active = GI50 up to about 1.1 µM and inactive = higher.

Assays:
Experiment in all cases: NCI tumour cell line growth inhibition, 48 h
[1] = test system: LOX IMVI
[2] = test system: HL-60
[3] = test system: SK-OV-3
[4] = test system: CAKI-1
[5] = test system: MOLT-4
[6] = test system: CCRF-CEM
[7] = test system: HCT-15
[8] = test system: MDA-MB-435
[9] = test system: A498
[10] = test system: 786-0
[11] = test system: HT-29
[12] = test system: HCC 2998
[13] = test system: SN12C
[14] = test system: SF-295
[15] = test system: ACHN
[16] = test system: NCI/ADR-RES
[17] = test system: SF-539
[18] = test system: K562
[19] = test system: RPMI-8226
[20] = test system: SR

SMILES | GI50 [1] | GI50 [2] | GI50 [3] | GI50 [4] | GI50 [5] | GI50 [6] | GI50 [7] | GI50 [8] | GI50 [9] | GI50 [10] | GI50 [11] | GI50 [12] | GI50 [13] | GI50 [14] | GI50 [15] | GI50 [16] | GI50 [17] | GI50 [18] | GI50 [19] | GI50 [20]
CC1=C(C)C(=O)C(C2=CC(=O)C=CC2=O)=C(C2=CC(=O)C=CC2=O)C1=O | 26.7 µM (inactive) | 14.9 µM (inactive) | > 100 µM (inactive) | 25.2 µM (inactive) | 15.5 µM (inactive) | 14.1 µM (inactive) | 41 µM | 27.9 µM (inactive) | > 100 µM (inactive) | 76.7 µM (inactive) | > 72.6 µM (inactive) | > 100 µM (inactive) | 31 µM (inactive) | > 96.2 µM (inactive) | 59.4 µM (inactive) | > 100 µM (inactive) | 27.3 µM (inactive) | – | – | –
O=c1cccc2n1CC1CNC[C@H]2C1 [CYTISINICLINE] | > 100 µM (inactive) | – | > 100 µM (inactive) | > 100 µM (inactive) | > 100 µM (inactive) | > 100 µM (inactive) | > 100 µM | > 100 µM (inactive) | – | > 100 µM (inactive) | > 100 µM (inactive) | > 100 µM (inactive) | > 100 µM (inactive) | > 100 µM (inactive) | > 100 µM (inactive) | > 100 µM (inactive) | – | > 100 µM (inactive) | – | –
O=[N+]([O-])c1cccc2nnccc12 | – | 2.5 µM (inactive) | 93.3 µM (inactive) | 34.9 µM (inactive) | 28.4 µM (inactive) | – | 12.9 µM | 15.7 µM (inactive) | – | 12.6 µM (inactive) | 20.3 µM (inactive) | – | 26.1 µM (inactive) | 42.7 µM (inactive) | 11.7 µM (inactive) | 34.1 µM (inactive) | 48 µM (inactive) | 23.9 µM (inactive) | 22 µM (inactive) | –
CCCCCCc1ccc(CCCCCCCC(=O)O)o1 | > 100 µM (inactive) | – | > 100 µM (inactive) | > 100 µM (inactive) | 16.4 µM (inactive) | 48.5 µM (inactive) | 61.5 µM | > 100 µM (inactive) | – | > 100 µM (inactive) | 46.2 µM (inactive) | > 100 µM (inactive) | > 100 µM (inactive) | 55.5 µM (inactive) | 62.4 µM (inactive) | > 100 µM (inactive) | > 100 µM (inactive) | 22.3 µM (inactive) | 39.6 µM (inactive) | 44 µM (inactive)
CC(C)(C)OC(=O)NCCCCC(N)NC(=O)c1ccccc1 (stereo not drawn) | > 100 µM (inactive) | – | > 100 µM (inactive) | > 100 µM (inactive) | > 100 µM (inactive) | > 100 µM (inactive) | > 100 µM | > 100 µM (inactive) | > 100 µM (inactive) | > 100 µM (inactive) | > 100 µM (inactive) | > 100 µM (inactive) | > 100 µM (inactive) | > 100 µM (inactive) | > 100 µM (inactive) | > 100 µM (inactive) | > 100 µM (inactive) | > 100 µM (inactive) | > 100 µM (inactive) | –
O=CN1CCN(C(=O)c2ccc(Cl)c(Cl)c2)C1=S | 9.29 µM (inactive) | 24.6 µM (inactive) | 18.9 µM (inactive) | 14.9 µM (inactive) | 22.8 µM (inactive) | 7.13 µM (inactive) | 19.3 µM | 16.6 µM (inactive) | 15.8 µM (inactive) | 4.53 µM (inactive) | 19.4 µM (inactive) | 18.5 µM (inactive) | 13.6 µM (inactive) | 17.9 µM (inactive) | 17.3 µM (inactive) | 32.9 µM (inactive) | 20.7 µM (inactive) | 13.8 µM (inactive) | 2.84 µM (inactive) | –
C/C=C/C=C\C1OC(O)([C@H](CC)C(=O)NC/C=C/C=C(\C)[C@H](OC)C(C)C2OC(\C=C/C=C/C=C(\C)C(=O)c3c(O)ccn(C)c3=O)[C@H](O)[C@@H]2O)C(O)C(O)C1(C)C (stereo partly drawn) | 69.5 µM (inactive) | 54.3 µM (inactive) | > 100 µM (inactive) | > 100 µM (inactive) | 41.9 µM (inactive) | 38.4 µM (inactive) | > 100 µM | > 100 µM (inactive) | > 100 µM (inactive) | 71 µM (inactive) | 55 µM (inactive) | > 100 µM (inactive) | 75.3 µM (inactive) | > 100 µM (inactive) | > 100 µM (inactive) | > 100 µM (inactive) | > 100 µM (inactive) | 73.5 µM (inactive) | 20.3 µM (inactive) | –
O=C(CC(=O)N1N=C(N(c2ccccc2)c2ccccc2)CC1c1ccccc1)Nc1ccc(Cl)cc1 (stereo not drawn) | – | > 100 µM (inactive) | > 100 µM (inactive) | > 100 µM (inactive) | > 100 µM (inactive) | > 100 µM (inactive) | > 100 µM | > 100 µM (inactive) | – | > 100 µM (inactive) | > 100 µM (inactive) | > 100 µM (inactive) | > 100 µM (inactive) | > 100 µM (inactive) | > 100 µM (inactive) | > 100 µM (inactive) | > 100 µM (inactive) | > 100 µM (inactive) | > 100 µM (inactive) | > 100 µM (inactive)
CCOP(=O)(OCC)C(F)(F)c1ccc(CC(NC(=O)OC(C)(C)C)C(=O)O)cc1 (stereo not drawn) | > 10 µM (inactive) | – | > 10 µM (inactive) | > 10 µM (inactive) | > 10 µM (inactive) | > 10 µM (inactive) | > 10 µM | > 10 µM (inactive) | > 10 µM (inactive) | > 10 µM (inactive) | > 10 µM (inactive) | > 10 µM (inactive) | > 10 µM (inactive) | > 10 µM (inactive) | > 10 µM (inactive) | > 10 µM (inactive) | > 10 µM (inactive) | > 10 µM (inactive) | – | –
COC(=O)C1=COC(OC2OC(CO)C(O)C(O)C2O)C2C3CN4CCc5c([nH]c6ccccc56)C4(CC12)O3 (stereo not drawn) | > 100 µM (inactive) | > 100 µM (inactive) | > 100 µM (inactive) | < 0.01 µM (active) | > 100 µM (inactive) | – | > 100 µM | – | > 100 µM (inactive) | > 100 µM (inactive) | > 100 µM (inactive) | – | > 100 µM (inactive) | > 100 µM (inactive) | > 100 µM (inactive) | > 100 µM (inactive) | > 100 µM (inactive) | > 100 µM (inactive) | > 100 µM (inactive) | > 100 µM (inactive)
O=C1NC(=O)C(C(c2ccc([N+](=O)[O-])cc2)C2C(=O)NC(=O)NC2=O)C(=O)N1 | > 100 µM (inactive) | > 100 µM (inactive) | – | > 100 µM (inactive) | > 100 µM (inactive) | 62.1 µM (inactive) | > 100 µM | > 100 µM (inactive) | > 100 µM (inactive) | > 100 µM (inactive) | > 100 µM (inactive) | – | > 100 µM (inactive) | > 100 µM (inactive) | > 100 µM (inactive) | > 100 µM (inactive) | – | > 100 µM (inactive) | > 100 µM (inactive) | –
CC(=O)Nc1ccc(OC2=CCN(C)CC2)cc1 | > 100 µM (inactive) | > 100 µM (inactive) | > 100 µM (inactive) | > 100 µM (inactive) | > 100 µM (inactive) | > 100 µM (inactive) | > 100 µM | > 100 µM (inactive) | – | > 100 µM (inactive) | > 100 µM (inactive) | > 100 µM (inactive) | > 100 µM (inactive) | > 100 µM (inactive) | > 100 µM (inactive) | > 100 µM (inactive) | – | > 100 µM (inactive) | > 100 µM (inactive) | > 100 µM (inactive)
CC(=O)N(CC(=O)C(=O)NNc1ccoc1)c1ccc(Cl)cc1 | > 100 µM (inactive) | – | > 100 µM (inactive) | > 100 µM (inactive) | > 100 µM (inactive) | 31.9 µM (inactive) | 50.5 µM | > 100 µM (inactive) | – | 94 µM (inactive) | > 100 µM (inactive) | > 100 µM (inactive) | > 100 µM (inactive) | > 100 µM (inactive) | 37.8 µM (inactive) | > 100 µM (inactive) | > 100 µM (inactive) | 91.4 µM (inactive) | > 100 µM (inactive) | 79.4 µM (inactive)
COc1cc(C2C3=C(NC(=O)C2C#N)c2ccc4ccccc4c2OCC3)cc(OC)c1OC (stereo not drawn) | – | 27 µM (inactive) | 17.2 µM (inactive) | 20.1 µM (inactive) | 34.2 µM (inactive) | 70.8 µM (inactive) | 41.8 µM | 41.7 µM (inactive) | 12.4 µM (inactive) | 31.5 µM (inactive) | 33 µM (inactive) | 25 µM (inactive) | 18.1 µM (inactive) | 27.6 µM (inactive) | 16.6 µM (inactive) | 30.4 µM (inactive) | 18.7 µM (inactive) | 44.6 µM (inactive) | 7.83 µM (inactive) | –
CCSC1=N/C(=C\c2ccco2)C(NN)=N1 | > 50 µM (inactive) | > 50 µM (inactive) | > 50 µM (inactive) | > 50 µM (inactive) | > 50 µM (inactive) | > 50 µM (inactive) | > 50 µM | > 50 µM (inactive) | > 50 µM (inactive) | > 50 µM (inactive) | > 50 µM (inactive) | – | > 50 µM (inactive) | > 50 µM (inactive) | > 50 µM (inactive) | > 50 µM (inactive) | > 50 µM (inactive) | > 50 µM (inactive) | > 50 µM (inactive) | –
CCc1ccc(CCN2CCCCC2)nc1 | > 100 µM (inactive) | – | > 100 µM (inactive) | > 100 µM (inactive) | > 100 µM (inactive) | > 100 µM (inactive) | > 100 µM | > 100 µM (inactive) | > 100 µM (inactive) | > 100 µM (inactive) | > 100 µM (inactive) | > 100 µM (inactive) | > 100 µM (inactive) | > 100 µM (inactive) | > 100 µM (inactive) | > 100 µM (inactive) | – | > 100 µM (inactive) | 96.8 µM (inactive) | –
